Measurements from US20250179061A1 (SIRONAX LTD., priority 2022, published 2025).
Read-outs that look alike come from different tables or passages of the source.

Test system: HT-29 cells
Test: HT-29 necroptosis cell viability assay (TNF-α/SMAC mimetic/zVAD-FMK, CellTiter-Glo)
Assay type: cell-based
Settings: Homo sapiens
Summary of the method: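 HT-29 cells (~5,000/well, overnight) in FBS-free McCoy's 5A with TNF-α 10 ng/ml, SMAC mimetic 6 μM and zVAD-FMK 10 μM plus 10-point 1:3 compound titration, 20 h at 37°C. ATP measured by CellTiter-Glo luminescence; IC50 as geometric mean of duplicates.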

[1] = HT-29, HT-29 necroptosis cell viability, IC50 class symbols, read-out: Activity
[2] = HT-29, HT-29 necroptosis cell viability assay, class symbols for IC50, read-out: Activity
[3] = HT-29 cells stimulated with TNF-α (10 ng/ml), SMAC mimetic (6 μM) and zVAD-FMK (10 μM), 20 hours, CellTiter-Glo ATP luminescence, geometric mean IC50 from 10 points, read-out: Activity
[4] = HT-29, HT-29 cells, necroptosis induced by TNF-α/SMAC mimetic/zVAD-FMK, CellTiter-Glo, read-out: Activity (IC50 class)

SMILES | IC50 [1] [µM] | IC50 [2] [µM] | further results
CCOC1CN(c2cc(Oc3ccc(-n4ncn(Cc5c(F)cccc5F)c4=O)cc3)c(F)cn2)C1 [Example 324, 4-(2,6-difluorobenzyl)-2-(4-((2-(3-ethoxyazetidin-1-yl)-5-fluoropyridin-4-yl)oxy)phenyl)-2,4-dihydro-3H-1,2,4-triazol-3-one] | < 0.1 | – | –
N#CC1CN(c2cc(Oc3ccc(-n4ncn(Cc5c(F)cccc5F)c4=O)cc3)ccn2)CC1O (stereo not drawn) [Example 264, 1-(4-(4-(4-(2,6-difluorobenzyl)-5-oxo-4,5-dihydro-1H-1,2,4-triazol-1-yl)phenoxy)pyridin-2-yl)-4-hydroxypyrrolidine-3-carbonitrile] | < 0.1 | – | –
Nc1c(Oc2ccc(-n3ncn(Cc4c(F)cccc4F)c3=O)cc2)ccnc1N1CC2(CCOCC2)C1 [Example 410, 2-(4-((3-amino-2-(7-oxa-2-azaspiro[3.5]nonan-2-yl)pyridin-4-yl)oxy)phenyl)-4-(2,6-difluorobenzyl)-2,4-dihydro-3H-1,2,4-triazol-3-one] | 0.1 to 1 | – | –
COC1(C#N)CN(c2nccc(Oc3ccc(-n4ncn(Cc5c(F)cccc5F)c4=O)cc3)c2F)C1 [Example 358, 1-(4-(4-(4-(2,6-difluorobenzyl)-5-oxo-4,5-dihydro-1H-1,2,4-triazol-1-yl)phenoxy)-3-fluoropyridin-2-yl)-3-methoxyazetidine-3-carbonitrile] | < 0.1 | – | –
CC1(O)CN(c2cc(S(=O)(=O)c3ccc(-n4ncn(Cc5c(F)cccc5F)c4=O)cc3)ccn2)C1 [Example 493, 4-(2,6-difluorobenzyl)-2-(4-((2-(3-hydroxy-3-methylazetidin-1-yl)pyridin-4-yl)sulfonyl)phenyl)-2,4-dihydro-3H-1,2,4-triazol-3-one] | – | < 0.1 | –
N#Cc1cnc(Oc2ccc(-n3ncn(Cc4c(F)cccc4F)c3=O)cc2)s1 [Example 77, 2-(4-(4-(2,6-difluorobenzyl)-5-oxo-4,5-dihydro-1H-1,2,4-triazol-1-yl)phenoxy)thiazole-5-carbonitrile] | – | – | IC50 [3]: 0.1 to 1 µM
CC1(O)CN(c2cc(Oc3ncc(-n4ncn(Cc5c(F)cccc5F)c4=O)cc3F)ccn2)C1 [Example 249, 4-(2,6-difluorobenzyl)-2-(5-fluoro-6-((2-(3-hydroxy-3-methylazetidin-1-yl)pyridin-4-yl)oxy)pyridin-3-yl)-2,4-dihydro-3H-1,2,4-triazol-3-one] | 0.1 to 1 | – | –
Cc1ncsc1Oc1ncc(-n2ncn(Cc3c(F)cccc3F)c2=O)cc1F [Example 644, 4-(2,6-difluorobenzyl)-2-(5-fluoro-6-((4-methylthiazol-5-yl)oxy)pyridin-3-y1)-2,4-dihydro-3H-1,2,4-triazol-3-one] | – | – | IC50 [4]: < 0.1 µM
O=c1n(Cc2c(F)cccc2F)cnn1-c1cnc(Oc2ccccc2)s1 [Example 165, 4-(2,6-difluorobenzyl)-2-(2-phenoxythiazol-5-yl)-2,4-dihydro-3H-1,2,4-triazol-3-one] | – | 0.1 to 1 | –
Cn1nccc1Cc1ccc(-n2ncn(Cc3c(F)cccc3F)c2=O)cc1 [Example 545, 4-(2,6-difluorobenzyl)-2-(4-((1-methyl-1H-pyrazol-5-yl)methyl)phenyl)-2,4-dihydro-3H-1,2,4-triazol-3-one] | – | < 0.1 | –
Cn1ncnc1Oc1ccc(-n2ncn(Cc3c(F)cccc3F)c2=O)cc1 [Example 94, 4-(2,6-difluorobenzyl)-2-(4-((1-methyl-1H-1,2,4-triazol-5-yl)oxy)phenyl)-2,4-dihydro-3H-1,2,4-triazol-3-one] | – | – | IC50 [3]: 1 to 10 µM
Cc1cnc(N2CC3(CCOCC3)C2)cc1Oc1ccc(-n2ncn(Cc3c(F)cccc3F)c2=O)cc1 [Example 263, 4-(2,6-difluorobenzyl)-2-(4-((5-methyl-2-(7-oxa-2-azaspiro[3.5]nonan-2-yl)pyridin-4-yl)oxy)phenyl)-2,4-dihydro-3H-1,2,4-triazol-3-one] | < 0.1 | – | –
CC1CCN(c2cc(Oc3ccc(-n4ncn(Cc5c(F)cccc5F)c4=O)cc3)ccn2)C1 (stereo not drawn) [Example 337, 4-(2,6-difluorobenzyl)-2-(4-((2-(3-methylpyrrolidin-1-yl)pyridin-4-yl)oxy)phenyl)-2,4-dihydro-3H-1,2,4-triazol-3-one] | < 0.1 | – | –
CC(C)(C)OC(=O)NC(C)(C)C1CN(c2cc(Oc3ccc(-n4ncn(Cc5c(F)cccc5F)c4=O)cc3F)c(F)cn2)C1 [Example 372, tert-butyl (2-(1-(4-(4-(4-(2,6-difluorobenzyl)-5-oxo-4,5-dihydro-1H-1,2,4-triazol-1-yl)-2-fluorophenoxy)-5-fluoropyridin-2-yl)azetidin-3-yl)propan-2-yl)carbamate] | < 0.1 | – | –
Cc1nc(C(N)=O)sc1Oc1ccc(-n2ncn(Cc3ccccc3C#N)c2=O)cc1F [Example 566, 5-(4-(4-(2-cyanobenzyl)-5-oxo-4,5-dihydro-1H-1,2,4-triazol-1-yl)-2-fluorophenoxy)-4-methylthiazole-2-carboxamide] | – | < 0.1 | –
Cc1nc(N2CC(OC(C)(C)C)C2)sc1Oc1ccc(-n2ncn(Cc3c(F)cccc3F)c2=O)cc1 [Example 456, 2-(4-((2-(3-(tert-butoxy)azetidin-1-yl)-4-methylthiazol-5-yl)oxy)phenyl)-4-(2,6-difluorobenzyl)-2,4-dihydro-3H-1,2,4-triazol-3-one] | < 0.1 | – | –
O=C1CC2(CCOCC2)CN1c1cc(Oc2ccc(-n3ncn(Cc4c(F)cccc4F)c3=O)cc2)ccn1 [Example 482, 2-(4-(4-(4-(2,6-difluorobenzyl)-5-oxo-4,5-dihydro-1H-1,2,4-triazol-1-yl)phenoxy)pyridin-2-yl)-8-oxa-2-azaspiro[4.5]decan-3-one] | – | 0.1 to 1 | –
O=c1n(Cc2c(F)cccc2F)cnn1-c1ccc(Oc2c(Cl)ccnc2N2CC3(CCOCC3)C2)cc1 [Example 673, 2-(4-((4-chloro-2-(7-oxa-2-azaspiro[3.5]nonan-2-yl)pyridin-3-yl)oxy)phenyl)-4-(2,6-difluorobenzyl)-2,4-dihydro-3H-1,2,4-triazol-3-one] | – | – | IC50 [4]: > 10 µM
Cc1ccc(C)n1Cc1ccc(-n2ncn(Cc3c(F)cccc3F)c2=O)cc1 [Example 207, 4-(2,6-difluorobenzyl)-2-(4-((2,5-dimethyl-1H-pyrrol-1-yl)methyl)phenyl)-2,4-dihydro-3H-1,2,4-triazol-3-one] | – | < 0.1 | –
COC1(C)CN(c2cc(Oc3ccc(-n4ncn(Cc5c(F)cccc5F)c4=O)cc3)ccn2)C1 [Example 500, 4-(2,6-difluorobenzyl)-2-(4-((2-(3-methoxy-3-methylazetidin-1-yl)pyridin-4-yl)oxy)phenyl)-2,4-dihydro-3H-1,2,4-triazol-3-one] | – | < 0.1 | –
CC(=O)c1nc(C)c(Oc2ccc(-n3ncn(Cc4c(F)cccc4F)c3=O)cc2F)s1 [Example 449, 2-(4-((2-acetyl-4-methylthiazol-5-yl)oxy)-3-fluorophenyl)-4-(2,6-difluorobenzyl)-2,4-dihydro-3H-1,2,4-triazol-3-one] | < 0.1 | – | –
Cc1ccn(Cc2ccc(-n3ncn(Cc4c(F)cccc4F)c3=O)cc2)n1 [Example 192, 4-(2,6-difluorobenzyl)-2-(4-((3-methyl-1H-pyrazol-1-yl)methyl)phenyl)-2,4-dihydro-3H-1,2,4-triazol-3-one] | – | < 0.1 | –
C[C@H]1[C@@H](NC(=O)OC(C)(C)C)CN1c1cc(Oc2ccc(-n3ncn(Cc4c(F)cccc4F)c3=O)cc2F)c(F)cn1 [Example 291, tert-butyl ((2S,3S)-1-(4-(4-(4-(2,6-difluorobenzyl)-5-oxo-4,5-dihydro-1H-1,2,4-triazol-1-yl)-2-fluorophenoxy)-5-fluoropyridin-2-yl)-2-methylazetidin-3-yl)carbamate] | < 0.1 | – | –
CCNc1cc(Oc2ccc(-n3ncn(Cc4c(F)cccc4F)c3=O)cc2)ccn1 [Example 346, 4-(2,6-difluorobenzyl)-2-(4-((2-(ethylamino)pyridin-4-yl)oxy)phenyl)-2,4-dihydro-3H-1,2,4-triazol-3-one] | 0.1 to 1 | – | –
Cc1cnn(C)c1Oc1ccc(-n2ncn(Cc3c(F)cccc3F)c2=O)cc1 [Example 176, 4-(2,6-difluorobenzyl)-2-(4-((1,4-dimethyl-1H-pyrazol-5-yl)oxy)phenyl)-2,4-dihydro-3H-1,2,4-triazol-3-one] | – | < 0.1 | –
O=c1n(Cc2c(F)cccc2F)cnn1-c1ccc(Oc2nc3c(s2)CCCC3)cc1 [Example 83, 4-(2,6-difluorobenzyl)-2-(4-((4,5,6,7-tetrahydrobenzo[d]thiazol-2-yl)oxy)phenyl)-2,4-dihydro-3H-1,2,4-triazol-3-one] | – | – | IC50 [3]: 0.1 to 1 µM
Cc1nn(-c2ccc(S(=O)(=O)N3CCN(CC4CCC4)CC3)cc2)c(=O)n1Cc1ccccc1 [Example 624] | – | 1 to 10 | –
CC1(N)CN(c2nccc(Oc3ccc(-n4ncn(Cc5c(F)cccc5F)c4=O)cc3)c2F)C1 [Example 321, 2-(4-((2-(3-amino-3-methylazetidin-1-yl)-3-fluoropyridin-4-yl)oxy)phenyl)-4-(2,6-difluorobenzyl)-2,4-dihydro-3H-1,2,4-triazol-3-one] | < 0.1 | – | –
Cc1nc(N2CC(C)(N)C2)sc1C(C)c1ccc(-n2ncn(Cc3c(F)cccc3F)c2=O)cc1 (stereo not drawn) [Example 513, 2-[4-[1-[2-(3-amino-3-methyl-azetidin-1-yl)-4-methyl-thiazol-5-yl]ethyl]phenyl]-4-[(2,6-difluorophenyl)methyl]-1,2,4-triazol-3-one; 2,2,2-trifluoroacetic acid] | – | 0.1 to 1 | –
CCOC1CN(c2cc(Oc3ccc(-n4ncn(Cc5c(F)cccc5F)c4=O)cc3F)c(F)cn2)C1 [Example 364, 4-(2,6-difluorobenzyl)-2-(4-((2-(3-ethoxyazetidin-1-yl)-5-fluoropyridin-4-yl)oxy)-3-fluorophenyl)-2,4-dihydro-3H-1,2,4-triazol-3-one] | < 0.1 | – | –
